Experimental data: ChEMBL document CHEMBL2046376, “Synthesis and antimicrobial activity of amide derivatives of polyether antibiotic-salinomycin” (2012)
Values after ≈ are worked out from the molar mass of the structure shown. Active and inactive are the calls of the source. The calls are words filed in the database; no cut-off is given here.

Tests used:
Format in all cases: functional
Staphylococcus aureus [1] = assay: Antibacterial activity against hospital-acquired methicillin-resistant Staphylococcus aureus 401/10 after 18 hrs by twofold serial agar dilution technique; conditions: 401/10, 18 h
Staphylococcus aureus [2] = assay: Antibacterial activity against Staphylococcus aureus ATCC 29213 assessed as zone of inhibition at 400 ug/disc after 18 hrs by disc diffusion method; conditions: ATCC 29213, 18 h, read-out: DIZ
[3] = test system: Staphylococcus epidermidis; assay: Antibacterial activity against Staphylococcus epidermidis ATCC 12228 assessed as zone of inhibition at 400 ug/disc after 18 hrs by disc diffusion method; conditions: ATCC 12228, 18 h, read-out: DIZ
Staphylococcus aureus [4] = assay: Antibacterial activity against hospital-acquired methicillin-resistant Staphylococcus aureus 451/11 after 18 hrs by twofold serial agar dilution technique; conditions: 451/11, 18 h
Staphylococcus aureus [5] = assay: Antibacterial activity against hospital-acquired methicillin-sensitive Staphylococcus aureus 442/11 after 18 hrs by twofold serial agar dilution technique; conditions: 442/11, 18 h
Staphylococcus aureus [6] = assay: Antibacterial activity against hospital-acquired methicillin-sensitive Staphylococcus aureus 443/11 after 18 hrs by twofold serial agar dilution technique; conditions: 443/11, 18 h
Staphylococcus aureus [7] = assay: Antibacterial activity against hospital-acquired methicillin-sensitive Staphylococcus aureus 445/11 after 18 hrs by twofold serial agar dilution technique; conditions: 445/11, 18 h
[8] = test system: Staphylococcus epidermidis; assay: Antibacterial activity against Staphylococcus epidermidis ATCC 35984 after 18 hrs by twofold serial agar dilution technique; conditions: ATCC 35984, 18 h
Escherichia coli [9] = assay: Antibacterial activity against Escherichia coli NCTC 8196 after 18 hrs by twofold serial agar dilution technique
Staphylococcus aureus [10] = assay: Antibacterial activity against hospital-acquired methicillin-sensitive Staphylococcus aureus 447/11 after 18 hrs by twofold serial agar dilution technique; conditions: 447/11, 18 h
Staphylococcus aureus [11] = assay: Antibacterial activity against hospital-acquired methicillin-sensitive Staphylococcus aureus 441/11 after 18 hrs by twofold serial agar dilution technique; conditions: 441/11, 18 h
Candida albicans [12] = assay: Antifungal activity against Candida albicans ATCC 10231 after 24 hrs by twofold serial agar dilution technique
Pseudomonas aeruginosa [13] = assay: Antibacterial activity against Pseudomonas aeruginosa ATCC 27853 after 18 hrs by twofold serial agar dilution technique
Escherichia coli [14] = assay: Antibacterial activity against Escherichia coli ATCC 25922 after 18 hrs by twofold serial agar dilution technique
Staphylococcus aureus [15] = assay: Antibacterial activity against hospital-acquired methicillin-sensitive Staphylococcus aureus 449/11 after 18 hrs by twofold serial agar dilution technique; conditions: 449/11, 18 h
Candida parapsilosis = assay: Antifungal activity against Candida parapsilosis ATCC 22019 after 24 hrs by twofold serial agar dilution technique
Staphylococcus aureus [16] = assay: Antibacterial activity against Staphylococcus aureus NCTC 4163 after 18 hrs by twofold serial agar dilution technique; conditions: NCTC 4163, 18 h
Staphylococcus aureus [17] = assay: Antibacterial activity against hospital-acquired methicillin-resistant Staphylococcus aureus 482/11 after 18 hrs by twofold serial agar dilution technique; conditions: 482/11, 18 h
Pseudomonas aeruginosa [18] = assay: Antibacterial activity against Pseudomonas aeruginosa NCTC 6749 after 18 hrs by twofold serial agar dilution technique
Candida albicans [19] = assay: Antifungal activity against Candida albicans ATCC 90028 after 24 hrs by twofold serial agar dilution technique
[20] = test system: Bordetella bronchiseptica; assay: Antibacterial activity against Bordetella bronchiseptica ATCC 4617 after 18 hrs by twofold serial agar dilution technique
Staphylococcus aureus [21] = assay: Antibacterial activity against Staphylococcus aureus NCTC 4163 assessed as zone of inhibition at 400 ug/disc after 18 hrs by disc diffusion method; conditions: NCTC 4163, 18 h, read-out: DIZ
Staphylococcus aureus [22] = assay: Antibacterial activity against Staphylococcus aureus ATCC 6538 after 18 hrs by twofold serial agar dilution technique; conditions: ATCC 6538, 18 h
Staphylococcus aureus [23] = assay: Antibacterial activity against hospital-acquired methicillin-resistant Staphylococcus aureus 481/11 after 18 hrs by twofold serial agar dilution technique; conditions: 481/11, 18 h
Proteus vulgaris = assay: Antibacterial activity against Proteus vulgaris NCTC 4635 after 18 hrs by twofold serial agar dilution technique
Staphylococcus aureus [24] = assay: Antibacterial activity against hospital-acquired methicillin-resistant Staphylococcus aureus 399/10 after 18 hrs by twofold serial agar dilution technique; conditions: 399/10, 18 h
Staphylococcus aureus [25] = assay: Antibacterial activity against hospital-acquired methicillin-sensitive Staphylococcus aureus 446/11 after 18 hrs by twofold serial agar dilution technique; conditions: 446/11, 18 h
Staphylococcus aureus [26] = assay: Antibacterial activity against hospital-acquired methicillin-sensitive Staphylococcus aureus 440/11 after 18 hrs by twofold serial agar dilution technique; conditions: 440/11, 18 h
Staphylococcus aureus [27] = assay: Antibacterial activity against Staphylococcus aureus ATCC 6538 assessed as zone of inhibition at 400 ug/disc after 18 hrs by disc diffusion method; conditions: ATCC 6538, 18 h, read-out: DIZ
Staphylococcus aureus [28] = assay: Antibacterial activity against hospital-acquired methicillin-resistant Staphylococcus aureus 394/10 after 18 hrs by twofold serial agar dilution technique; conditions: 394/10, 18 h
Staphylococcus aureus [29] = assay: Antibacterial activity against hospital-acquired methicillin-sensitive Staphylococcus aureus 448/11 after 18 hrs by twofold serial agar dilution technique; conditions: 448/11, 18 h
Staphylococcus aureus [30] = assay: Antibacterial activity against hospital-acquired methicillin-resistant Staphylococcus aureus 450/11 after 18 hrs by twofold serial agar dilution technique; conditions: 450/11, 18 h
Staphylococcus aureus [31] = assay: Antibacterial activity against Staphylococcus aureus ATCC 25923 after 18 hrs by twofold serial agar dilution technique; conditions: ATCC 25923, 18 h
[32] = test system: Staphylococcus epidermidis; assay: Antibacterial activity against Staphylococcus epidermidis ATCC 12228 after 18 hrs by twofold serial agar dilution technique; conditions: ATCC 12228, 18 h
Staphylococcus aureus [33] = assay: Antibacterial activity against hospital-acquired methicillin-resistant Staphylococcus aureus 452/11 after 18 hrs by twofold serial agar dilution technique; conditions: 452/11, 18 h
Staphylococcus aureus [34] = assay: Antibacterial activity against hospital-acquired methicillin-resistant Staphylococcus aureus 393/10 after 18 hrs by twofold serial agar dilution technique; conditions: 393/10, 18 h
Staphylococcus aureus [35] = assay: Antibacterial activity against Staphylococcus aureus ATCC 29213 after 18 hrs by twofold serial agar dilution technique; conditions: ATCC 29213, 18 h
Staphylococcus aureus [36] = assay: Antibacterial activity against Staphylococcus aureus ATCC 25923 assessed as zone of inhibition at 400 ug/disc after 18 hrs by disc diffusion method; conditions: ATCC 25923, 18 h, read-out: DIZ
Escherichia coli [37] = assay: Antibacterial activity against Escherichia coli ATCC 10538 after 18 hrs by twofold serial agar dilution technique
Staphylococcus aureus [38] = assay: Antibacterial activity against hospital-acquired methicillin-sensitive Staphylococcus aureus 444/11 after 18 hrs by twofold serial agar dilution technique; conditions: 444/11, 18 h
Pseudomonas aeruginosa [39] = assay: Antibacterial activity against Pseudomonas aeruginosa ATCC 15442 after 18 hrs by twofold serial agar dilution technique
Staphylococcus aureus [40] = assay: Antibacterial activity against hospital-acquired methicillin-resistant Staphylococcus aureus 400/10 after 18 hrs by twofold serial agar dilution technique; conditions: 400/10, 18 h
[41] = test system: Staphylococcus epidermidis; assay: Antibacterial activity against Staphylococcus epidermidis ATCC 35984 assessed as zone of inhibition at 400 ug/disc after 18 hrs by disc diffusion method; conditions: ATCC 35984, 18 h, read-out: DIZ

In the case of `CC[C@@H](C(=O)[C@@H](C)[C@@H](O)[C@H](C)[C@@H]1O[C@@H]([C@@H](CC)C(=O)NCCCN2CCCCC2)CC[C@@H]1C)[C@H]1O[C@]2(C=C[C@@H](O)[C@]3(CC[C@@](C)([C@H]4CC[C@](O)(CC)[C@H](C)O4)O3)O2)[C@H](C)C[C@@H]1C`, the MIC (Staphylococcus aureus [1]) is reported as 64 µg/mL (≈ 73.1 µM), the zone of inhibition at 400 µg/disc (Staphylococcus aureus [2]) is reported as 11 mm and the zone of inhibition at 400 µg/disc [3] is reported as 11 mm. The MIC (Staphylococcus aureus [4]) was 32 µg/mL (≈ 36.6 µM), the MIC (Staphylococcus aureus [5]) was 32 µg/mL (≈ 36.6 µM) and the MIC (Staphylococcus aureus [6]) was 32 µg/mL (≈ 36.6 µM). The MIC (Staphylococcus aureus [7]) was 32 µg/mL (≈ 36.6 µM), the MIC [8] was 256 µg/mL (≈ 292 µM) and the Activity (Escherichia coli [9]) was “inactive”. The MIC (Staphylococcus aureus [10]) was 32 µg/mL (≈ 36.6 µM), the MIC (Staphylococcus aureus [11]) was 64 µg/mL (≈ 73.1 µM) and the Activity (Candida albicans [12]) was “inactive”. The Activity (Pseudomonas aeruginosa [13]) was “inactive”, the Activity (Escherichia coli [14]) was “inactive” and the MIC (Staphylococcus aureus [15]) was 32 µg/mL (≈ 36.6 µM). The Activity (Candida parapsilosis) was “inactive”, the MIC (Staphylococcus aureus [16]) was 128 µg/mL (≈ 146 µM) and the MIC (Staphylococcus aureus [17]) was 64 µg/mL (≈ 73.1 µM). The Activity (Pseudomonas aeruginosa [18]) was “inactive”, the Activity (Candida albicans [19]) was “inactive” and the Activity [20] was “inactive”. The zone of inhibition at 400 µg/disc (Staphylococcus aureus [21]) was 12 mm, the MIC (Staphylococcus aureus [22]) was 128 µg/mL (≈ 146 µM) and the MIC (Staphylococcus aureus [23]) was 64 µg/mL (≈ 73.1 µM). The Activity (Proteus vulgaris) was “inactive”, the MIC (Staphylococcus aureus [24]) was 64 µg/mL (≈ 73.1 µM) and the MIC (Staphylococcus aureus [25]) was 64 µg/mL (≈ 73.1 µM). It also gave an MIC (Staphylococcus aureus [26]) of 32 µg/mL (≈ 36.6 µM), a zone of inhibition at 400 µg/disc (Staphylococcus aureus [27]) of 13 mm and an MIC (Staphylococcus aureus [28]) of 64 µg/mL (≈ 73.1 µM). It also gave an MIC (Staphylococcus aureus [29]) of 32 µg/mL (≈ 36.6 µM), an MIC (Staphylococcus aureus [30]) of 64 µg/mL (≈ 73.1 µM) and an MIC (Staphylococcus aureus [31]) of 128 µg/mL (≈ 146 µM). It also gave an MIC [32] of 128 µg/mL (≈ 146 µM), an MIC (Staphylococcus aureus [33]) of 32 µg/mL (≈ 36.6 µM) and an MIC (Staphylococcus aureus [34]) of 64 µg/mL (≈ 73.1 µM). The MIC (Staphylococcus aureus [35]) was 128 µg/mL (≈ 146 µM), the zone of inhibition at 400 µg/disc (Staphylococcus aureus [36]) was 11 mm and the Activity (Escherichia coli [37]) was “inactive”. For the same compound, the MIC (Staphylococcus aureus [38]) was 32 µg/mL (≈ 36.6 µM), the Activity (Pseudomonas aeruginosa [39]) was “inactive” and the MIC (Staphylococcus aureus [40]) was 64 µg/mL (≈ 73.1 µM). The zone of inhibition at 400 µg/disc [41] was 11 mm.
